From patent US20170049716A1, “NITISINONE DOSING REGIMENS FOR THE TREATMENT OF ALKAPTONURIA” (Swedish Orphan Biovitrum International AB, priority 2014, published 2017)

Experiments:
[1] = test system: tyrosine; settings: 2 mg daily, 20 patients, no diet restrictions, 3-year study; cited from earlier work
[2] = test system: homogentisic acid (HGA); settings: 2 mg/day, 36 months, AKU patients; cited from earlier work
[3] = test system: patients with HT-1; settings: cited from earlier work
[4] = test system: homogentisic acid (HGA); test: Urinary excretion of HGA over 24 hours (u-HGA24), dose-response study in patients with AKU; type: in vivo, human; settings: for Relative decrease in u-HGA24, max / Relative decrease in u-HGA24, mean / Relative decrease in u-HGA24, median / Relative decrease in u-HGA24, min: baseline to week 4, N = 8
Method: A randomized, open-label, parallel-group dose-response study with a no-treatment control group was performed. Patients with AKU were randomized to receive either 1 mg, 2 mg, 4 mg or 8 mg nitisinone once daily (oral administration) or no treatment (control). Forty patients were randomized, equally distributed amongst the five groups (8 patients per group). Nitisinone was administered as an oral suspension containing 4 mg/mL. The following dose volumes were administered once daily, in the morning: Urinary excretion of HGA over a 24-hour period (u-HGA24) was assessed at weeks 0, 2 and 4. Urine was collected into 2.5-L bottles containing 30 mL of 5N H2SO4. The exact length of the collection interval and the volume of the collected urine were recorded. The concentration of HGA in the urine was measured by liquid chromatography tandem mass spectrometry (LCMSMS). The 24-hour excretion of HGA was calculated by multiplying the concentration with the volume of the collected urine, and correcting for any deviation from a 24-hour collection period. (There were no reports of missed samples within the collection interval.)

[5] = test system: homogentisic acid (HGA); test: Serum HGA (s-HGA) 24-hour profile, dose-response study in patients with AKU; type: in vivo, human; settings: for Patients with no quantifiable serum HGA concentration in any sample over the 24-hour dosage interval: group of 8 patients, LLOQ 3.1 μmol/L
Method: A randomized, open-label, parallel-group dose-response study with a no-treatment control group was performed. Patients with AKU were randomized to receive either 1 mg, 2 mg, 4 mg or 8 mg nitisinone once daily (oral administration) or no treatment (control). Forty patients were randomized, equally distributed amongst the five groups (8 patients per group). Nitisinone was administered as an oral suspension containing 4 mg/mL. The following dose volumes were administered once daily, in the morning: Measurements of serum HGA (s-HGA) and tyrosine (s-Tyr) concentrations were performed at weeks 0, 2 and 4. At all visits a full 24-hour profile was determined at the following time-points: pre-dose (immediately after breakfast) and 0.5, 1,2, 3, 4, 6, 8, 10, 12, 15, 18,24 hours post-dose. The concentrations of HGA and tyrosine in the serum were measured by liquid chromatography tandem mass spectrometry (LCMSMS). The lower limit of quantification (LLOQ) for HGA was 3.1 μmol/L. Maximum and daily average serum concentrations of HGA and tyrosine were determined. The daily average concentrations were determined by dividing the area under the concentration vs. time curves, calculated by means of the trapezoidal rule, by 24.

[6] = test system: patients with AKU; settings: 2 mg/day, 36 months; cited from earlier work
[7] = 1 mg once daily oral, Week 0 (baseline), N = 8
[8] = 1 mg once daily oral, Week 4, N = 8
[9] = 2 mg once daily oral, Week 0 (baseline), N = 8
[10] = 2 mg once daily oral, Week 4, N = 8
[11] = 4 mg once daily oral, Week 0 (baseline), N = 8
[12] = 4 mg once daily oral, Week 4, N = 8
[13] = 8 mg once daily oral, Week 0 (baseline), N = 8
[14] = 8 mg once daily oral, Week 4, N = 8

Compound: O=C1CCCC(=O)C1C(=O)c1ccc(C(F)(F)F)cc1[N+](=O)[O-] [nitisinone, 2-[2-nitro-4-(trifluoromethyl)benzoyl]-1,3-cyclohexanedione]
- Tyrosine levels, average [1]: 800 µM
- Tyrosine levels, range [1]: 332 to 1528 µM
- Reduction of urinary excretion on average, compared to pre-treatment levels [2]: about 95%
- IQ of treated children versus unaffected siblings ([3]; children treated with nitisinone (Bendadi et al.)): considerably lower
- Cognitive impairment causing schooling difficulties, patients affected ([3]; school-age patients with HT-1 treated with nitisinone (Masurel-Paulet et al.)): eight out of 23
- u-HGA24, max [4, 7]: 69502.9 μmol/24h
- u-HGA24, mean [4, 7]: 36757.0 μmol/24h
- u-HGA24, median [4, 7]: 34034.4 μmol/24h
- u-HGA24, min [4, 7]: 20743.4 μmol/24h
- u-HGA24, max [4, 8]: 6752.8 μmol/24h
- u-HGA24, mean [4, 8]: 3931.0 μmol/24h
- u-HGA24, median [4, 8]: 3415.6 μmol/24h
- u-HGA24, min [4, 8]: 1847.6 μmol/24h
- Relative decrease in u-HGA24, max ([4]; 1 mg once daily oral): 91.05%
- Relative decrease in u-HGA24, mean ([4]; 1 mg once daily oral): 88.72%
- Relative decrease in u-HGA24, median ([4]; 1 mg once daily oral): 87.99%
- u-HGA24, max [4, 9]: 40747.2 μmol/24h
- u-HGA24, mean [4, 9]: 31439.8 μmol/24h
- u-HGA24, median [4, 9]: 31754.7 μmol/24h
- u-HGA24, min [4, 9]: 19994.2 μmol/24h
- u-HGA24, max [4, 10]: 3484.1 μmol/24h
- u-HGA24, mean [4, 10]: 1602.5 μmol/24h
- u-HGA24, median [4, 10]: 1515.6 μmol/24h
- u-HGA24, min [4, 10]: 627.0 μmol/24h
- Relative decrease in u-HGA24, max ([4]; 2 mg once daily oral): 96.86%
- Relative decrease in u-HGA24, mean ([4]; 2 mg once daily oral): 94.78%
- Relative decrease in u-HGA24, median ([4]; 2 mg once daily oral): 95.64%
- Relative decrease in u-HGA24, min ([4]; 2 mg once daily oral): 89.08%
- u-HGA24 ([4]; 2 mg or higher per day, with one exception): less than 2000 μmol
- u-HGA24, max [4, 11]: 55393.9 μmol/24h
- u-HGA24, mean [4, 11]: 35453.4 μmol/24h
- u-HGA24, median [4, 11]: 31502.7 μmol/24h
- u-HGA24, min [4, 11]: 14442.9 μmol/24h
- u-HGA24, max [4, 12]: 1478.4 μmol/24h
- u-HGA24, mean [4, 12]: 733.8 μmol/24h
- u-HGA24, median [4, 12]: 790.5 μmol/24h
- u-HGA24, min [4, 12]: 164.2 μmol/24h
- Relative decrease in u-HGA24, max ([4]; 4 mg once daily oral): 99.41%
- Relative decrease in u-HGA24, mean ([4]; 4 mg once daily oral): 98.15%
- Relative decrease in u-HGA24, median ([4]; 4 mg once daily oral): 98.19%
- Relative decrease in u-HGA24, min ([4]; 4 mg once daily oral): 96.74%
- u-HGA24, max [4, 13]: 32896.6 μmol/24h
- u-HGA24, mean [4, 13]: 27353.5 μmol/24h
- u-HGA24, median [4, 13]: 28728.7 μmol/24h
- u-HGA24, min [4, 13]: 17075.1 μmol/24h
- u-HGA24, max [4, 14]: 223.0 μmol/24h
- u-HGA24, mean [4, 14]: 146.3 μmol/24h
- u-HGA24, median [4, 14]: 140.4 μmol/24h
- u-HGA24, min [4, 14]: 83.1 μmol/24h
- Relative decrease in u-HGA24, max ([4]; 8 mg once daily oral): 99.70%
- Relative decrease in u-HGA24, mean ([4]; 8 mg once daily oral): 99.41%
- Relative decrease in u-HGA24, median ([4]; 8 mg once daily oral): 99.52%
- Relative decrease in u-HGA24, min ([4]; 8 mg once daily oral): 98.69%
- Decrease of urinary excretion of HGA (up to) ([4]; 8 mg per day (highest dose)): > 99%
- Suppression of the formation of HGA, estimated ([4]; 10 mg per day, estimated): almost completely
- Decrease of u-HGA in a majority of patients, estimated by extrapolation ([4]; 15 mg per day, extrapolation): about 99.9%
- Suppression of the formation of HGA ([4]; considerably higher doses than previously used in alkaptonuria): more than 99%
- u-HGA24 of one patient ([4]; one patient on 2 mg, week 4): 3484 µmol
- Daily average serum concentration of HGA, max [5, 7]: 44.1 µmol/L
- Daily average serum concentration of HGA, mean [5, 7]: 34.2 µmol/L
- Daily average serum concentration of HGA, median [5, 7]: 33.0 µmol/L
- Daily average serum concentration of HGA, min [5, 7]: 25.5 µmol/L
- Daily average serum concentration of HGA, max [5, 8]: 7.3 µmol/L
- Daily average serum concentration of HGA, mean [5, 8]: 4.1 µmol/L
- Daily average serum concentration of HGA, median [5, 8]: 3.9 µmol/L
- Daily average serum concentration of HGA, min [5, 8]: 3.1 µmol/L
- Daily average serum concentration of HGA, max [5, 9]: 59.1 µmol/L
- Daily average serum concentration of HGA, mean [5, 9]: 36.6 µmol/L
- Daily average serum concentration of HGA, median [5, 9]: 34.2 µmol/L
- Daily average serum concentration of HGA, min [5, 9]: 25.1 µmol/L
- Daily average serum concentration of HGA, max [5, 10]: 5.8 µmol/L
- Daily average serum concentration of HGA, median [5, 10]: <3.1 µmol/L
- Daily average serum concentration of HGA, min [5, 10]: <3.1 µmol/L
- Patients with no quantifiable serum HGA concentration in any sample over the 24-hour dosage interval ([5]; 2 mg): 3
- Daily average serum concentration of HGA, max [5, 11]: 49.9 µmol/L
- Daily average serum concentration of HGA, mean [5, 11]: 38.5 µmol/L
- Daily average serum concentration of HGA, median [5, 11]: 37.7 µmol/L
- Daily average serum concentration of HGA, min [5, 11]: 28.9 µmol/L
- Daily average serum concentration of HGA, max [5, 12]: <3.1 µmol/L
- Daily average serum concentration of HGA, median [5, 12]: <3.1 µmol/L
- Daily average serum concentration of HGA, min [5, 12]: <3.1 µmol/L
- Patients with no quantifiable serum HGA concentration in any sample over the 24-hour dosage interval ([5]; 4 mg): 4
- Daily average serum concentration of HGA, max [5, 13]: 47.7 µmol/L
- Daily average serum concentration of HGA, mean [5, 13]: 36.6 µmol/L
- Daily average serum concentration of HGA, median [5, 13]: 38.6 µmol/L
- Daily average serum concentration of HGA, min [5, 13]: 25.2 µmol/L
- Daily average serum concentration of HGA, median [5, 14]: <3.1 µmol/L
- Daily average serum concentration of HGA, min [5, 14]: <3.1 µmol/L
- Patients with no quantifiable serum HGA concentration in any sample over the 24-hour dosage interval ([5]; 8 mg): 7
- Effect on primary efficacy variable, hip rotation [6]: failed to show an effect
